Measurements from patent US20110230476A1, “PI3 KINASE INHIBITORS AND USES THEREOF” (AVILA THERAPEUTICS, INC., priority 2009, published 2011).
“Also recorded” adds a separate entry of the source.

Assays:
HCT116 cells = assay: HCT-116 cell proliferation assay; assay type: cell-based; conditions: Homo sapiens, 72 hours, Cell Titer Glo
Procedure: HCT-116 Cell Proliferation Assay
(§1) For the HCT116 Proliferation Assay, 3000 cells per well were plated in Growth Media (DMEM, 10% FBS, 1% 1-glutamine, 1% penicillin/streptomycin) in 96 well plates. The following day, compounds were added to duplicate wells at concentrations of 10 uM and 3-fold dilutions down to 40 nM. The plates were returned to the incubator for 72 hours and then the assays were developed using Cell Titer Glo (Promega, Madison, Wis.) according to manufacturer's instructions.

SK-OV-3 cells = assay: SK-OV-3 cell proliferation assay; assay type: cell-based; conditions: Homo sapiens; SK-OV-3 proliferation, 72 hours, Cell Titer Glo
Procedure: SK-OV-3 Cell Proliferation Assay
as §1, with “SK-OV-3 proliferation” for “HCT116 Proliferation”, “5000” for “3000”

PI3Kγ (p120γ) = target: T1, PI3Kγ (p120γ) (Homo sapiens, UniProt P48736); assay: HTRF assay, potency against active PI3Kγ; assay type: biochemical; conditions: [ATP]=50 μM, [di-C8-PIP2]=10 μM, 30 min pre-incubation, read-out: PI3Kγ Inhibition
T1 construct: purchased BPS Bioscience (San Diego, Calif.) or Millipore (Billerica, Mass.)
T1 sequence (P48736 whole entry): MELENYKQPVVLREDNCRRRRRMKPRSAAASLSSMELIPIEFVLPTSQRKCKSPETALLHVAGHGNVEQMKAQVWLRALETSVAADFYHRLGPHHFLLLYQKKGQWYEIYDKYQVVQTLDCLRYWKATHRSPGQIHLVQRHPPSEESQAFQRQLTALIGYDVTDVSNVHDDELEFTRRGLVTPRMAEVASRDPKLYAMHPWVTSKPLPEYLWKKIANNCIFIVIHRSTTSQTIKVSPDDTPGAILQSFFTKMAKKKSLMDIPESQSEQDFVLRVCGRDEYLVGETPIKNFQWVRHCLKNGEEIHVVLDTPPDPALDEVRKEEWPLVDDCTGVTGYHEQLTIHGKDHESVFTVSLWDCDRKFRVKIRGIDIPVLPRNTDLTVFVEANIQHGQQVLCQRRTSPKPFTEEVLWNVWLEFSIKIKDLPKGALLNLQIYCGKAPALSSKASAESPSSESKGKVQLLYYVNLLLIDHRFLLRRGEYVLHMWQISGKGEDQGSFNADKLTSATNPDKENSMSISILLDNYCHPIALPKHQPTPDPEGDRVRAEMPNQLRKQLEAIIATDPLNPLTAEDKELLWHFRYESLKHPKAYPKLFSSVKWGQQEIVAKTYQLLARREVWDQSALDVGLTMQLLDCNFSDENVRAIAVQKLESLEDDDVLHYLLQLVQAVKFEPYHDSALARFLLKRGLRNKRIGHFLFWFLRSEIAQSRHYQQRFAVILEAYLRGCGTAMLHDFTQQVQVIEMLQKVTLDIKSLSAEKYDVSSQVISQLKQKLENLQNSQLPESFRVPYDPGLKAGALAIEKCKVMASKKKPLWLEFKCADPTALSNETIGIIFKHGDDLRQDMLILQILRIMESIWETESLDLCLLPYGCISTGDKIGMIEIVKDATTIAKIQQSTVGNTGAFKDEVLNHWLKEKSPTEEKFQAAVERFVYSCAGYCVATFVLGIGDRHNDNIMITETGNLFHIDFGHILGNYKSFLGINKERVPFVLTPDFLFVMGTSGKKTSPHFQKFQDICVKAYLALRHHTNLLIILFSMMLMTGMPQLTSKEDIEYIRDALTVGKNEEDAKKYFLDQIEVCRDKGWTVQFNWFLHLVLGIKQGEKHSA
Method in brief: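 End-point competition HTRF: enzyme (p110β/p85α 0.75 nM; p120γ 2-2.5 nM) with 10 μM di-C8-PIP2 pre-incubated 30 min at 25° C with compound, then 50 μM ATP added for 30-60 min at 25° C. Stopped, detected after 1 and 18 h; IC50 from variable-slope fit.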

PI3Kα [1] = target: T2, PI3Kα (Homo sapiens, UniProt P42336); assay: Mass spectrometry of intact PI3Kα (Johns Hopkins), 3 hr incubation; assay type: binding; set-up: Johns Hopkins; conditions: 10× fold excess of compound, MALDI
Procedure: (§2) Mass Spectrometry for PI3K
Intact PI3Kα (Johns Hopkins) was incubated for 3 hr at a 10× fold excess of II-a-45 or II-a-49 to protein. Aliquots (3 μL) of the samples were diluted with 10 μL of 0.1% TFA prior to micro C4 ZipTipping directly onto the MALDI target using Sinapinic acid as the desorption matrix (10 mg/ml in 0.1% TFA:Acetonitrile 50:50).
Target sequence in this assay (P42336 whole entry): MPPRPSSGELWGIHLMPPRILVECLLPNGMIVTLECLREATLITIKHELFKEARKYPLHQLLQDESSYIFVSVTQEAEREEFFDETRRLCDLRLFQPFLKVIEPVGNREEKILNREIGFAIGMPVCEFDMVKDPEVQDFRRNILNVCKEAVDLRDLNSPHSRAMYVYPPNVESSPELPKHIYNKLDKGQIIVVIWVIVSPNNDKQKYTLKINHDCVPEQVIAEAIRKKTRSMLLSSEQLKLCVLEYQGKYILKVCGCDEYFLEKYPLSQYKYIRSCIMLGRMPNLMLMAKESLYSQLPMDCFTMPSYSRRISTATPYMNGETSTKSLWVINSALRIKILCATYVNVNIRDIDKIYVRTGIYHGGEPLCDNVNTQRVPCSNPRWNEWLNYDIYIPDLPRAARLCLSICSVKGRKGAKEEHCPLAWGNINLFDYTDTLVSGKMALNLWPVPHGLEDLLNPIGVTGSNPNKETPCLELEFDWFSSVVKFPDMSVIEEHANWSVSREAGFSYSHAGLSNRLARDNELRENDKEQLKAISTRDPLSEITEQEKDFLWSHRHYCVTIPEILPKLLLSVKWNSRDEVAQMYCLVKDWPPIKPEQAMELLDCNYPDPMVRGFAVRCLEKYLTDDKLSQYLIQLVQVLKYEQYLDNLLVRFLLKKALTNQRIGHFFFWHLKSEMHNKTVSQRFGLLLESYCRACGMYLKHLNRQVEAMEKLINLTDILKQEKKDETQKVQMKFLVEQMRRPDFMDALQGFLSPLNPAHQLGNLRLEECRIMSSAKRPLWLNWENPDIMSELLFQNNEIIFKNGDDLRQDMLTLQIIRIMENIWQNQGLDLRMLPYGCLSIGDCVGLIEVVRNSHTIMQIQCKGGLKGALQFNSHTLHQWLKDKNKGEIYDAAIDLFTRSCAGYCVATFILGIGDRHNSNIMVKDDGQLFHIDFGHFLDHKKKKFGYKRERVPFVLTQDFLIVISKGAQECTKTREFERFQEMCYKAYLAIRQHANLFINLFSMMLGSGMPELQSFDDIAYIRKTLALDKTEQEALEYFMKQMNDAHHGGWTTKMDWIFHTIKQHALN
Target sequence in this assay (P27986 322-600 partner limits assumed): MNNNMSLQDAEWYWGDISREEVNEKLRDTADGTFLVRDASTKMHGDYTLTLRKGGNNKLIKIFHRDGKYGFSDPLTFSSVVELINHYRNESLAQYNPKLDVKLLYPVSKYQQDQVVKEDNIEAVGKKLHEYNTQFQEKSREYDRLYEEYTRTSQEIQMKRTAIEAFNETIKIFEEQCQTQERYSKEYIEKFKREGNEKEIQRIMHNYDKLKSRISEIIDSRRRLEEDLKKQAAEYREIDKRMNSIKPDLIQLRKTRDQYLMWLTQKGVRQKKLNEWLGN

SKOV3 cells = assay: GI50 determinations in SKOV3 cells; assay type: cell-based; conditions: Homo sapiens, SK-OV-3
PI3Kα [2] = target: T2, PI3Kα; assay: Mass spectrometry of intact PI3Kα (Millipore, 14-602), 1 hr incubation; assay type: binding; set-up: purchased Millipore 14-602; conditions: 10× fold excess of compound, MALDI
Procedure: as §2
Target sequence in this assay (P42336 whole entry): as the sequence (P42336 whole entry) above
Target sequence in this assay (P27986 whole entry partner): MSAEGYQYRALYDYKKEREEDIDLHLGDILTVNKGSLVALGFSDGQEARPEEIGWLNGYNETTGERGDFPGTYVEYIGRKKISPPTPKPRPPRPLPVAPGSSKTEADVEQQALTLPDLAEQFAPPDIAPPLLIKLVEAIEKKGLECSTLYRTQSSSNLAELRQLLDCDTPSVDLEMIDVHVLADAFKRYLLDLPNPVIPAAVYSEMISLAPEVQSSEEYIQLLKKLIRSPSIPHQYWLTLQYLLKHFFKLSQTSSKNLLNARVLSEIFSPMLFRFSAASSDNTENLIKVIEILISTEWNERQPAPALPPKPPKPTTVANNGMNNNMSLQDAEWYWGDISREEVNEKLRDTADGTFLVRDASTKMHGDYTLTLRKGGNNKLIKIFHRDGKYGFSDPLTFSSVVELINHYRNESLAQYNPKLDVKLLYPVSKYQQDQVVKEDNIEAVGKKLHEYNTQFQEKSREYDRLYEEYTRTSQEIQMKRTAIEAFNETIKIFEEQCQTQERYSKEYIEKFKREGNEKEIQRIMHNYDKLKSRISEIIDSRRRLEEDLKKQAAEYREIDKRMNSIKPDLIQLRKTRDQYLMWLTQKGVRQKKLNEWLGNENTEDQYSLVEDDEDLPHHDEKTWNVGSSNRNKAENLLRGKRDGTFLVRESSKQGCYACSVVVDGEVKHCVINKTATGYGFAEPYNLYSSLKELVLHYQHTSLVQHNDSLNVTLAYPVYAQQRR
Aliquots (5 μl) of the samples were diluted with 15 μl of 0.2% TFA prior to micro C4 ZipTipping directly onto the MALDI target using Sinapinic acid as the desorption matrix (10 mg/ml in 0.1% TFA:Acetonitrile 50:50).

EC50 (HCT116 cells) [µM] | EC50 (SK-OV-3 cells) [µM] | IC50 (PI3Kγ (p120γ)) [µM] | covalent modification of PI3Kα (PI3Kα [1]) | Structure (SMILES) | GI50 (SKOV3 cells; SKOV3 cells, 96 hours, Cell Titer Glo) [µM] | GI50 (SKOV3 cells; Table 19, assay not given, classes agree with Table 26) [µM] | covalent modification of PI3Kα (PI3Kα [2])
1 to 10 | 0.1 to 1 | > 1 | completely modify | C/C=C/C(=O)CCC(=O)N1CCN(Cc2cc3nc(-c4cccc5[nH]ncc45)nc(N4CCOCC4)c3s2)CC1 [II-a-36, (E)-1-(4-((2-(1H-indazol-4-yl)-4-morpholinothieno[3,2-d]pyrimidin-6-yl)methyl)piperazin-1-yl)hept-5-ene-1,4-dione] |  |  | 
 |  |  |  | CC(C)=CC(=O)CCC(=O)N1CCN(Cc2cc3nc(-c4cccc5[nH]ncc45)nc(N4CCOCC4)c3s2)CC1 [II-a-3, 1-(4-((2-(1H-indazol-4-yl)-4-morpholinothieno[3,2-d]pyrimidin-6-yl)methyl)piperazin-1-yl)-6-methylhept-5-ene-1,4-dione] | 0.01 to 0.1 | 0.01 to 0.1 | complete modification; also recorded: covalent modification
